Reference: patent publication US8415359B2, “Phenylpyrrole derivative” (Daiichi Sankyo Company, Limited, priority 2008, dated 2013)

Biological target: T1, human pancreatic GK (human glucokinase variant 1, GST-fused protein) (Homo sapiens, UniProt P35557)
T1 construct: made in house; host or cells: Escherichia coli (such as BL21 or JM109)
T1 sequence (P35557 1-465): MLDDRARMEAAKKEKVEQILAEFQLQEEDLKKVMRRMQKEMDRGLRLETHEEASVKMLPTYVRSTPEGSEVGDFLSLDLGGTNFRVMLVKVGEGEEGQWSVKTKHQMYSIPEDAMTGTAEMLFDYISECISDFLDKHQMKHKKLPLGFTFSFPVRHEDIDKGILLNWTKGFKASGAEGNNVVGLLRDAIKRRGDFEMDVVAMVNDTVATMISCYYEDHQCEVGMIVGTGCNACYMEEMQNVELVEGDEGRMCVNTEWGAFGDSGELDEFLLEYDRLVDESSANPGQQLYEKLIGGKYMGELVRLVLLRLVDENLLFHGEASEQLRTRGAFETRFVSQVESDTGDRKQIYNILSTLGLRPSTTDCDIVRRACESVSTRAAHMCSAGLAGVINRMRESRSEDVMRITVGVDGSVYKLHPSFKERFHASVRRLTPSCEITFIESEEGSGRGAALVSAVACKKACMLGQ
Assay: GK activity test (GK activation rate)
Format: biochemical
Settings: test compound 1 μM; glucose 5 mM; 30 min at room temperature; absorbance at 340 nm with test compound / without test compound
Description: cDNA encoding human pancreatic GK polypeptide (GenBank Accession No. NM_000162, human glucokinase variant 1) was cloned from a human cDNA library by polymerase chain reaction (PCR), and introduced into a glutathione S-transferase (GST)-fused protein expression vector (GEX4T, GE Healthcare Bioscience). The vector was introduced into Escherichia coli (such as BL21 or JM109, Invitrogen), and the transformed E. coli was cultured overnight at 37° C. followed by recovery of the cells. After freezing and thawing the recovered cells, the cells were suspended in phosphate buffer containing Triton-X at a final concentration of 1% followed by disrupting the cells with an ultrasonic homogenizer. The supernatant obtained by low-speed centrifugation treatment of the homogenate (10,000×g, 30 minutes) was further subjected to high-speed centrifugation (100,000×g, 10 minutes) followed by recovering the supernatant and purifying the fused protein using a GST fused protein purification system (Bulk GST Purification Module, GE Healthcare Bioscience). The GK fused protein was divided into smaller aliquots and stored at −80° C.
GK activity was measured using the GK purified in (1) above. More specifically, an enzyme solution was prepared by adding the purified GK of (1) above and glucose-6-phosphate dehydrogenase (Sigma) to solution 1 of a glucose assay kit (D-Glucose UV Method, Roche Diagnostics). The enzyme solution, a test compound diluent and glucose (final concentration: 5 mM) were mixed in a 96-well ELISA plate, and allowed to react for 30 minutes at room temperature. Following completion of the reaction, absorbance at a wavelength of 340 nm was measured using SpectraMax Plus (Molecular Probe). Furthermore, unreacted (when glucose was not added) absorbance was used for the background.
GK activation rates were indicated with values represented by the following numerical formula: (absorbance after reacting for 30 minutes when test compound added)/(absorbance after reacting for 30 minutes when test compound not added).

Structure (SMILES) | GK Activation Rate
COC[C@H](C)Oc1cc(Oc2ccc(S(C)(=O)=O)nc2)cc(-c2ccc(C3=N[C@H](CO)[C@H](C)O3)[nH]2)c1 [Example 91, {(4R,5S)-2-[5-(3-[(1S)-2-Methoxy-1-methylethoxy]-5-{[6-(methylsulfonyl)pyridin-3-yl]oxy}phenyl)-1H-pyrrol-2-yl]-5-methyl-4,5-dihydro-1,3-oxazol-4-yl}methanol] | 2.6
C[C@@H]1COC(c2ccc(-c3cc(Oc4cnc(S(C)(=O)=O)cn4)cc(O[C@@H](C)CO)c3)[nH]2)=N1 [Example 107, (2S)-2-(3-{5-[(4R)-4-Methyl-4,5-dihydro-1,3-oxazol-2-yl]-1H-pyrrol-2-yl}-5-{[5-(methylsulfonyl)pyrazin-2-yl]oxy}phenoxy)propan-1-ol] | 2.0
COC[C@H](C)Oc1cc(Oc2cnc(S(C)(=O)=O)cn2)cc(-c2ccc(C3=N[C@H](CO)[C@H](C)O3)[nH]2)c1 [Example 110, {(4R,5S)-2-[5-(3-{[(2S)-1-Methoxypropan-2-yl]oxy}-5-{[5-(methylsulfonyl)pyrazin-2-yl]oxy}phenyl)-1H-pyrrol-2-yl]-5-methyl-4,5-dihydro-1,3-oxazol-4-yl}methanol] | 2.4
C[C@@H]1COC(c2ccc(-c3cc(Oc4ccc(S(C)(=O)=O)nc4)cc(O[C@@H](C)CO)c3)[nH]2)=N1 [Example 84, (2S)-2-(3-{5-[(4R)-4-Methyl-4,5-dihydro-1,3-oxazol-2-yl]-1H-pyrrol-2-yl}-5-{-[6-(methylsulfonyl)pyridin-3-yl]oxy}phenoxy)propan-1-ol] | 2.7

Results, then the molecule that gave them:

GK Activation Rate | Structure (SMILES)
2.1 | COC[C@H](C)Oc1cc(Oc2ccc(S(C)(=O)=O)cc2)cc(-c2ccc(C3=NC[C@H](CO)O3)[nH]2)c1 [Example 35, [(5R)-2-(5-{3-[(1S)-2-Methoxy-1-methylethoxy]-5-[4-(methylsulfonyl)phenoxy]phenyl}-1H-pyrrol-2-yl)-4,5-dihydro-1,3-oxazol-5-yl]methanol]
1.7 | COC[C@H](C)Oc1cc(Oc2ccc(S(C)(=O)=O)cc2)cc(-c2ccc(C3=NC[C@@H](C)O3)[nH]2)c1 [Example 33, (5R)-2-(5-{3-[(1S)-2-Methoxy-1-methylethoxy]-5-[4-(methylsulfonyl)phenoxy]phenyl}-1H-pyrrol-2-yl)-5-methyl-4,5-dihydro-1,3-oxazole]
2.7 | COC[C@H](C)Oc1cc(Oc2ccc(S(C)(=O)=O)nc2)cc(-c2ccc(C3=NC[C@H](CO)O3)[nH]2)c1 [Example 82, {(5R)-2-[5-(3-[(1S)-2-Methoxy-1-methylethoxy]-5-{[6-(methylsulfonyl)pyridin-3-yl]oxy}phenyl)-1H-pyrrol-2-yl]-4,5-dihydro-1,3-oxazol-5-yl}methanol]
2.0 | COC[C@H](C)Oc1cc(Oc2ccc(S(C)(=O)=O)cc2)cc(-c2ccc(C3=NCCO3)[nH]2)c1 [Example 20, 2-(5-{3-[(1S)-2-Methoxy-1-methylethoxy]-5-[4-(methylsulfonyl)phenoxy]phenyl}-1H-pyrrol-2-yl)-4,5-dihydro-1,3-oxazole]
